Where two headings read alike, the source gives them in different places.
What was measured:
[1] = test system: CYP1A2; design: method as in Vavrová et al., 2022; Liu et al., 2023; settings: CYP1A2 selective inhibitor; ref Vavrová et al., 2022; Liu et al., 2023; cited from earlier work
[2] = test system: CYP3A4; assay: in vitro; settings: rat; for IC50 at 30 min: microsomes
Protocol: (§2) To determine the enzymatic kinetic parameter (the Michaelis constant, Km) of lenvatinib in RLM and HLM, we established a 200 μL enzyme reaction system, which included 2–100 μM lenvatinib, 0.3 mg/mL RLM or HLM, 0.1 M Tris-HCl, and 1 mM NADPH. […] The mixed probe substrates were added to an incubation mixture containing 0.3 mg/mL RLM, 0.1 M PBS, and 1 mM NADPH. First, the mixture without NADPH was pre-incubated at 37°C for 5 min, and then 10 μL NADPH was added to start the reaction. After incubation for 30 min, the samples were immediately freezed to −80°C to terminate the reaction. About 20 min later, 300 μL acetonitrile and 10 μL regorafenib (200 ng/mL) as IS were added to precipitate the protein. When the samples were fully vortexed for 2 min and completely mixed, the mixture was centrifuged for 10 min at 13,000 rpm. In the end, each supernatant was detected and analyzed by UPLC-MS/MS.
(§3) To explore the ability of three flavonoids to inhibit lenvatinib metabolism in vitro, we measured the half-maximal inhibitory concentration (IC50) of luteolin, myricetin, and fisetin, respectively. The 200 μL incubation system consisted of Tris-HCl (0.1 M), RLM or HLM (0.3 mg/mL), NADPH (1 mM), lenvatinib (23.5 μM in RLM or 16.9 μM in HLM) and three flavonoids (0, 0.01, 0.1, 1, 10, 25, 50 and 100 μM). To evaluate the effects of three flavonoids on CYP1A2, CYP2B6 and CYP3A4 activity in RLM, the specific CYP isoform probe mixture was incubated with a single inhibitor and the specific CYP isoform probe was used at a concentration equal to or slightly below its corresponding Km value ([Dinger et al., 2014]). […] Finally, the samples were processed as mentioned above.

[3] = test system: lenvatinib metabolism (M1 formation) in HLM; assay: Inhibition of lenvatinib metabolism (M1 formation) by flavonoids in human liver microsomes; assay type: in vitro ADME; settings: human; for IC50 at 30 min: 0.3 mg/mL HLM, lenvatinib 16.9 μM, mean ± S.D., read-out: IC50 to inhibit the metabolism of lenvatinib in HLM
[4] = test system: CYP2B6; assay: CYP2B6 activity in RLM, mixed probe method (bupropion); settings: for IC50 at 30 min: rat
[5] = test system: CYP3A4
Protocol: as §2, §3

[6] = target: T1, CYP1A2 (Rattus norvegicus, UniProt P04799); assay: CYP1A2 activity in RLM, mixed probe method (melatonin); settings: for inhibition at 30 min, 100 µM: rat
T1 sequence (P04799 1-513): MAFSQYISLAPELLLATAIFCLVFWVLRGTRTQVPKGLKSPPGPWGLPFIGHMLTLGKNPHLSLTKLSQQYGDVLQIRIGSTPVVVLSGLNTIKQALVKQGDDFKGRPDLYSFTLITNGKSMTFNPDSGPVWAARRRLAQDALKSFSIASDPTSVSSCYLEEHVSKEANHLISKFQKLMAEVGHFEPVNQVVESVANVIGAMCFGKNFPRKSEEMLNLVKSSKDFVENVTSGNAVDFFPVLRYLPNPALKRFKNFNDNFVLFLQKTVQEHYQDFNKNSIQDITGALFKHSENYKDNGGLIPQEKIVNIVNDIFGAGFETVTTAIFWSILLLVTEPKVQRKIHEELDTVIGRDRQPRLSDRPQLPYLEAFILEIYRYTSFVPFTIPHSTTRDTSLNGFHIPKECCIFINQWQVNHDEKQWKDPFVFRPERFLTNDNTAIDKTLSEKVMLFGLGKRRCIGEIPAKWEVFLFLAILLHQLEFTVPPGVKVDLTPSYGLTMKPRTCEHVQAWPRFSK
Protocol: as §2, §3

[7] = design: method as in Xia et al., 2023; settings: co-administered azole; ref Xia et al., 2023; cited from earlier work
[8] = Metabolic stability of lenvatinib in RLM with or without flavonoids; assay type: in vitro ADME; settings: rat, rat liver microsomes, 1.0 μM lenvatinib, 0.3 mg/mL RLM, with or without flavonoid, n = 3
Protocol: Using the UPLC-MS/MS technique, metabolic stability tests were carried out to monitor any discernible drop in lenvatinib concentration in the RLM matrix ([Shang et al., 2021]). 1.0 μM lenvatinib was incubated with 0.3 mg/mL RLM and 1 mM NADPH in 0.1 M Tris-HCl buffer until a final volume of 0.2 mL was reached. NADPH was introduced following a 5 min pre-incubation period, and the reaction was stopped at various intervals of 0, 5, 10, 45, 60, and 90 min. Similarly, three flavonoids were added to the above incubation system to study the effects of the three flavonoids on the metabolic stability of lenvatinib. The post-treatment method was same as the above enzyme reaction. The metabolic stability curve for lenvatinib was constructed from the obtained data.
The relative content of lenvatinib in the RLM matrix was calculated after stopping the metabolic reaction at different time periods. The relative content was equal to the percentage of the remaining lenvatinib relative to zero time (representing 100%). […] The in vitro half-life (t1/2) was obtained using the equation: t1/2 = 0.693/k; V (mL/mg) = volume of incubation ([Kaci et al., 2023])/protein in the incubation ([Rumgay et al., 2022]); intrinsic clearance (CLint) (mL/min/mg protein) = V × 0.693/t1/2. […] The metabolic stability results of three flavonoids co-incubated with lenvatinib, including t1/2 and clearance were shown in Table 3.

[9] = Pharmacokinetics of lenvatinib in SD rats with or without luteolin or myricetin; settings: Sprague-Dawley, rat, in vivo, po, 1.2 mg/kg
Protocol: Fifteen SD rats were randomly divided into three groups (n = 5): Group A, lenvatinib (1.2 mg/kg, p. o.) ([Cui et al., 2021]); Group B, lenvatinib (1.2 mg/kg, p. o.) + luteolin (30 mg/kg, p. o.) ([Chen et al., 2010]); Group C, lenvatinib (1.2 mg/kg, p. o.) + myricetin (50 mg/kg, p. o.) ([Lan et al., 2017]). Three drugs were suspended in 0.5% carboxymethylcellulose sodium salt (CMC-Na) solution, respectively, prepared when used. Before the formal experiment, SD rats fasted for 12 h to avoid the effect of food intake on drug absorption, but were free to drink water. At the beginning of the experiment, group A was given equal volumes of 0.5% CMC-Na solution, while group B and C were received luteolin and myricetin, respectively. After 30 min, all three groups were gavaged with a single dose of 1.2 mg/kg lenvatinib. At 1, 1.5, 2, 3, 4, 6, 8, 12, and 24 h after lenvatinib administration, blood samples were collected from the tail vein into a 1.5 mL EP tube treated with heparin, respectively. The 50 μL plasma supernatant was precisely extracted and put into a new 1.5 mL EP tube after centrifugation at 8,000 rpm for 10 min. […] Finally, the liquid supernatant was taken to UPLC-MS/MS to detect the concentration of the analytes.

[10] = Michaelis-Menten kinetics of lenvatinib in HLM; assay type: in vitro ADME, human; settings: human, human liver microsomes; 2–100 μM lenvatinib, 0.3 mg/mL HLM
Protocol: (§4) To determine the enzymatic kinetic parameter (the Michaelis constant, Km) of lenvatinib in RLM and HLM, we established a 200 μL enzyme reaction system, which included 2–100 μM lenvatinib, 0.3 mg/mL RLM or HLM, 0.1 M Tris-HCl, and 1 mM NADPH. […] First, the mixture without NADPH was pre-incubated at 37°C for 5 min, and then 10 μL NADPH was added to start the reaction. After incubation for 30 min, the samples were immediately freezed to −80°C to terminate the reaction. About 20 min later, 300 μL acetonitrile and 10 μL regorafenib (200 ng/mL) as IS were added to precipitate the protein. When the samples were fully vortexed for 2 min and completely mixed, the mixture was centrifuged for 10 min at 13,000 rpm. In the end, each supernatant was detected and analyzed by UPLC-MS/MS.
(§5) The experimental data were expressed as mean ± standard deviation (mean ± S.D.). Through GraphPad Prism 9.5 software, the Michaelis-Menten curves of lenvatinb in RLM and HLM were drawn based on the Michaelis-Menten analysis curve fitting program in nonlinear regression analysis, and the log(inhibitor) vs normalized response mode was applied to acquire the corresponding IC50 curve diagram. […]

[11] = test system: HLM; assay: Michaelis-Menten kinetics of lenvatinib in HLM; assay type: in vitro ADME, human; settings: HLM vs RLM
Protocol: as §4, §5

[12] = test system: lenvatinib metabolism in rat liver microsomes (RLM); assay: Inhibition of lenvatinib metabolism (M1 formation) by flavonoids in rat liver microsomes; settings: Lineweaver-Burk plot
Source text: (§1) The experimental data were expressed as mean ± standard deviation (mean ± S.D.). Through GraphPad Prism 9.5 software, the Michaelis-Menten curves of lenvatinb in RLM and HLM were drawn based on the Michaelis-Menten analysis curve fitting program in nonlinear regression analysis, and the log(inhibitor) vs normalized response mode was applied to acquire the corresponding IC50 curve diagram. The Lineweaver-Burk plot was got by the Lineweaver-Burk double reciprocal mode, and its subsidiary plot was drawn on the slope (Km/Vmax vs. inhibitor concentration) and y-intercept (1/Vmax vs. inhibitor concentration) of the drawn line. Besides, the mean plasma concentration-time curve of lenvatinib was plotted based on the pharmacokinetic data. Drug and Statistics (DAS) software (version 3.0 software, Mathematical Pharmacology Professional Committee of China, Shanghai, China) with non-compartment model analyzes was used to obtain the corresponding pharmacokinetic parameters. SPSS (version 24.0; SPSS Inc., Chicago, IL, United States of America) with one-way ANOVA was used to compare the difference between the combination and the single group, respectively. p < 0.05, it was considered statistically significant.

[13] = test system: CYP1A2; design: method as in Cao et al., 2017; Shi et al., 2024; settings: ref Cao et al., 2017; Shi et al., 2024; read-out: IC50 on CYP1A2 in vitro; cited from earlier work
[14] = test system: lenvatinib metabolism in human liver microsomes (HLM); assay: Inhibition of lenvatinib metabolism (M1 formation) by flavonoids in human liver microsomes; assay type: in vitro ADME; settings: for Inhibitory type on lenvatinib metabolism in HLM: Lineweaver-Burk plot
[15] = test system: lenvatinib metabolism (M1 formation) in RLM; assay: Inhibition of lenvatinib metabolism (M1 formation) by flavonoids in rat liver microsomes; settings: rat
Source text: as §1

[16] = test system: tofacitinib metabolism in HLM; design: method as in Ye et al., 2024; settings: ref Ye et al., 2024, cited from earlier work
[17] = test system: tofacitinib metabolism in RLM; design: method as in Ye et al., 2024; settings: ref Ye et al., 2024, cited from earlier work
[18] = design: method as in Hong et al., 2014; settings: rats; ref Hong et al., 2014; cited from earlier work
[19] = substrate: COc1ccc2[nH]cc(CCNC(C)=O)c2c1; assay: not read; settings: other: melatonin, mixed method, RLM; 37.0 °C
Protocol: as §2, §3

[20] = human liver microsomes, probe lenvatinib 16.9 μM
[21] = rat liver microsomes, probe bupropion (8.0 μM)

Molecule: Cc1nc2c([nH]1)c(=O)n(C)c(=O)n2Cc1ccco1 [Furafylline]
- Inhibitory effect on the formation of O-desmethyl lenvatinib [1]: 37%

Molecule: O=c1c(O)c(-c2ccc(O)c(O)c2)oc2cc(O)ccc12 [fisetin]
- IC50 at 30 min [2]: 74.2 ± 2.16 µM
- IC50 at 30 min [3, 20]: 21.2 ± 0.93 µM
- IC50 at 30 min [4, 21]: 29.4 ± 1.36 µM
- Degree of inhibition on CYP3A4 ([5]; RLM): weak inhibition
- IC50 [6]: 5.89 ± 0.13 µM
- inhibition at 30 min, 100 µM ([6]; microsomes): 93.6%

Molecule: C[C@@H](c1nc(-c2ccc(C#N)cc2)cs1)[C@](O)(Cn1cncn1)c1cc(F)ccc1F [isavuconazole]
- Improvement of plasma exposure to lenvatinib [7]: 50.20%

Molecule: CC(=O)N1CCN(c2ccc(OCC3COC(Cn4ccnc4)(c4ccc(Cl)cc4Cl)O3)cc2)CC1 (stereo not drawn) [ketoconazole]
- Improvement of plasma exposure to lenvatinib [7]: 3.01 times

Molecule: COc1cc2nccc(Oc3ccc(NC(=O)NC4CC4)c(Cl)c3)c2cc1C(N)=O [lenvatinib, Lenvatinib]
- microsomal CLint at 1 μM [8]: 2.3 ± 0.2 µL/min/mg
- half-life at 1 μM ([8]; read-out: in vitro t1/2 of lenvatinib): 17 ± 1.55 h
- AUC(0-inf) [9]: 1410 ng·h/mL
- AUC(0-t) [9]: 1260 ng·h/mL
- CL/F [9]: 14.3 mL/min/kg
- Cmax [9]: 147 ± 20.4 ng/mL
- Tmax [9]: 5.6 ± 0.89 h
- t1/2z of lenvatinib [9]: 4.14 ± 1.57 h
- Km at 30 min [10]: 16.9 ± 2.42 µM
- Km in HLM lower than in RLM [11]: 28.1%

Molecule: O=c1cc(-c2ccc(O)c(O)c2)oc2cc(O)cc(O)c12 [luteolin]
- Inhibitory type on lenvatinib metabolism in RLM [12]: un-competitive
- Inhibitory type on lenvatinib metabolism in RLM ([12]; listed as Luteolin): un-competitive inhibition
- IC50 [13]: < 10 µM
- IC50 at 30 min [2]: 49.4 ± 2.45 µM
- IC50 at 30 min [3, 20]: 6.89 ± 0.43 µM
- Ki at 30 min ([3]; human liver microsomes, probe lenvatinib 4.23, 8.45, 16.90, 33.80 μM, Lineweaver-Burk secondary plot, n = 3): 14.3 ± 4.85 µM
- Inhibitory type on lenvatinib metabolism in HLM [14]: mixed
- Inhibitory type on lenvatinib metabolism in HLM ([14]; listed as Luteolin): mixed type of non-competitive and competitive inhibition
- α for inhibition of lenvatinib metabolism in HLM ([14]; αKi/Ki): 1.34
- Degree of inhibition on CYP2B6 ([4]; RLM): moderate inhibition
- IC50 at 30 min [4, 21]: 18.9 ± 1.33 µM
- Degree of inhibition on CYP3A4 ([5]; microsomes): weak inhibition
- IC50 [6]: 0.81 ± 0.07 µM
- Degree of inhibition on CYP1A2 ([6]; RLM, 100 μM): strong inhibition
- inhibition at 30 min, 100 µM ([6]; rat liver microsomes, probe melatonin (30.0 μM)): 96.9%

Molecule: Cc1ncc2n1-c1ccc(Cl)cc1C(c1ccccc1F)=NC2 [midazolam, reference compound]
- Km at 30 min [2]: 1.9 ± 0.13 µM

Molecule: O=c1c(O)c(-c2cc(O)c(O)c(O)c2)oc2cc(O)cc(O)c12 [myricetin]
- IC50 at 30 min [15]: 11.2 ± 0.81 µM
- Inhibition type on tofacitinib in HLM [16]: non-competitively
- IC50 ([16]; read-out: IC50 for inhibition of tofacitinib in HLM): 2.35 µM
- Inhibition type on tofacitinib in RLM [17]: non-competitively
- IC50 ([17]; read-out: IC50 for inhibition of tofacitinib in RLM): 9.27 µM
- IC50 at 30 min [2]: 5.11 ± 0.11 µM
- IC50 at 30 min [3]: 12.3 ± 1.21 µM
- IC50 at 30 min ([4]; microsomes, IC50 for CYP2B6 in RLM, probe 8.0 μM bupropion, mixed probes, 0.3 mg/mL RLM): > 20 µM
- IC50 ([4]; read-out: IC50 for CYP2B6 in RLM, probe 8.0 μM bupropion, mixed probes, 0.3 mg/mL RLM): 25.6 ± 1.73 µM
- IC50 [6]: 5.61 ± 0.25 µM
- inhibition at 30 min, 100 µM ([6]; microsomes): 98.1%
- Absolute bioavailability [18]: less than 10%

B1: CYP1A2 (Rattus norvegicus) (protein)
chain: MAFSQYISLAPELLLATAIFCLVFWVLRGTRTQVPKGLKSPPGPWGLPFIGHMLTLGKNPHLSLTKLSQQYGDVLQIRIGSTPVVVLSGLNTIKQALVKQGDDFKGRPDLYSFTLITNGKSMTFNPDSGPVWAARRRLAQDALKSFSIASDPTSVSSCYLEEHVSKEANHLISKFQKLMAEVGHFEPVNQVVESVANVIGAMCFGKNFPRKSEEMLNLVKSSKDFVENVTSGNAVDFFPVLRYLPNPALKRFKNFNDNFVLFLQKTVQEHYQDFNKNSIQDITGALFKHSENYKDNGGLIPQEKIVNIVNDIFGAGFETVTTAIFWSILLLVTEPKVQRKIHEELDTVIGRDRQPRLSDRPQLPYLEAFILEIYRYTSFVPFTIPHSTTRDTSLNGFHIPKECCIFINQWQVNHDEKQWKDPFVFRPERFLTNDNTAIDKTLSEKVMLFGLGKRRCIGEIPAKWEVFLFLAILLHQLEFTVPPGVKVDLTPSYGLTMKPRTCEHVQAWPRFSK
- Km [19]: 32.39 ± 0.58 µM
